In patent US20070134349A1, “Methods of treating hematological malignancies” (DUKE UNIVERSITY, priority 2005, published 2007):
Like-named read-outs stand apart in the source and are kept apart here. Each block holds one compound with its values, some of them ahead of it.

Key:
[1] = cited from earlier work
[2] = cited from earlier work; remark: listed apart in the source
PML-RARα = biological target: T1, PML-RARα (Homo sapiens, UniProt P10276+P29590); assay: Western blot of PML-RARα and RARα in NB4 cells; format: cell-based; details: 3 days
T1 construct: PML portion (fusion partner, UniProt P29590); endogenous in cells; host or cells: NB4 cells
T1 sequence (P29590+P10276 with tags, fused parts or gaps): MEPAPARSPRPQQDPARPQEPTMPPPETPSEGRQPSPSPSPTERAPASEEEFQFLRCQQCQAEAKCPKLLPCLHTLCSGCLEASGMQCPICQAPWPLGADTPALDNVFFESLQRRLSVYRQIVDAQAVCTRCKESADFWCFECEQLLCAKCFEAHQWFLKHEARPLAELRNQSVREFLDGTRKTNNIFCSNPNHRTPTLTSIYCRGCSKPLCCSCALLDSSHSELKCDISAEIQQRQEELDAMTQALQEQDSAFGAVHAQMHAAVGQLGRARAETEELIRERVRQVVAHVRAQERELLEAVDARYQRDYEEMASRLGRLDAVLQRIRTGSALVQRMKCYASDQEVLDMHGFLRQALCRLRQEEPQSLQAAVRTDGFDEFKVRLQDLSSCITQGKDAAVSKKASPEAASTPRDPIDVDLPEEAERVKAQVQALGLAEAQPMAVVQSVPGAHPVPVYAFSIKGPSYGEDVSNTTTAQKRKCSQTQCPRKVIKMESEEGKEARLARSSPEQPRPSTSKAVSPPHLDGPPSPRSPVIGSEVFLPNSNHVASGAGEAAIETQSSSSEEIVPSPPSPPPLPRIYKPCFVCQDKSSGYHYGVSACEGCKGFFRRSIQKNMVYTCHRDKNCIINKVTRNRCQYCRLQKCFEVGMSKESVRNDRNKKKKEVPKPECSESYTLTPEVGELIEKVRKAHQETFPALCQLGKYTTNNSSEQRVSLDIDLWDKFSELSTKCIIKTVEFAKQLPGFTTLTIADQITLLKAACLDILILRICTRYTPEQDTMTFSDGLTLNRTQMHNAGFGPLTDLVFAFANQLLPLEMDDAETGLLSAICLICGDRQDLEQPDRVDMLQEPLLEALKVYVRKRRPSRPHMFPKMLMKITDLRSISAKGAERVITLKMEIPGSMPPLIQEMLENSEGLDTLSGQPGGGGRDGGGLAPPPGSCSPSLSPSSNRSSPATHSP
Experimental: (§1) Whole-cell lysates were prepared by washing the cells with PBS and resuspending them in 1 ml of lysis buffer (1× phosphate-buffered saline, 1 mM EDTA, 1.5 mg/ml of iodoacetamide, 100 μM sodium orthovanadate, 0.5% Triton X-100, 20 mM β-glycerolphosphate, 0.2 mM phenylmethylsulfonyl fluoride, and 1× complete protease inhibitor cocktail). After clarification by a 15-min centrifugation in a microcentrifuge at 4° C., the resulting supernatant was collected. 20-50 μg of protein extracts were separated on a 10% SDS-polyacrylamide gel and transferred to a nitrocellulose membrane. The membrane was blocked with 5% nonfat milk followed by incubation with antibodies. The immunocomplex was visualized by chemiluminescence.

H3 [3] = assay: Western blot of phospho-H3 (Ser-10) in NB4 cells; format: cell-based; details: NB4 cells, 24 h
Experimental: as §1

H3 [4] = assay: Western blot of acetyl-H3 and phospho-H3 in U-937 cells; format: cell-based; details: higher concentrations, 18 h
Experimental: as §1

HL-60 cells = assay: CD11c expression by flow cytometry in HL-60 cells; format: cell-based; details: 48 h
Experimental: (§2) NB4 cells were provided by Dr. Ronald Evans (Salk Institute, La Jolla, Calif.). NB4-R4 cells were provided by Dr. Wilson Miller (McGill University, Montreal, Canada). HL-60, U-937, and Kasumi-1 cells were obtained from the American Type Culture Collection (Rockville, Md.). NB4 and NB4-R4 cells were grown in RPMI medium 1640 containing 10% fetal bovine serum. U-937 cells were grown in RPMI medium 1640 containing 10 mM HEPES, 1 mM sodium pyruvate, 4.5 g/L glucose, and 10% fetal bovine serum. HL-60 cells were grown in Iscove's Modified Dulbecco's medium containing 20% fetal bovine serum. Kasumi-1 cells were grown in RPMI medium 1640 containing 10 mM HEPES, 1 mM sodium pyruvate, 4.5 g/L glucose, and 20% fetal bovine serum.
(§3) To determine the percentage of cells that express differentiation markers, cells were washed once and resuspended in RPMI medium 1640 containing 3% fetal bovine serum. Phycoerythrin (PE)-conjugated CD11b, 5 Allophycocyanin (APC)-CD11c or control antibodies (BD Pharmingen, San Diego, Calif.) were added into cell suspension. After 30 minutes of incubation in the dark at 4° C., the cells were washed twice and resuspended in RPMI medium 1640 containing 7-amino actinomycin D (AAD) (for dead cell exclusion) and analyzed by FACScan (Becton Dickinson).

NB4 cells [5] = assay: Differentiation markers CD11c/CD11b by flow cytometry in NB4 cells; format: cell-based
Experimental: as §2, §3

Kasumi-1 cells = assay: CD11c expression by flow cytometry in Kasumi-1 cells; format: cell-based; details: 3 days
Experimental: as §2, §3

C/EBPβ = assay: Western blot of phospho-C/EBPβ (Thr-235) and C/EBPβ in NB4 cells; format: cell-based
Experimental: as §1

[6] = in human; cited from earlier work
U-937 cells [7] = assay: CD11c expression by flow cytometry in U-937 cells; format: cell-based; details: lower concentrations, 3 days
Experimental: as §2, §3

U-937 cells [8] = assay: Annexin V binding in U-937 cells; format: cell-based; details: higher concentrations, 3 days
Experimental: as §2
(§4) To determine the percentage of cells that undergo apoptosis, after incubation with APC-CD11c antibody in the dark at 4° C., cells were washed twice with PBS and incubated at room temperature for 15 min with PE-conjugated Annexin-V (BD Pharmingen) and 7-AAD in binding buffer (10 mM HEPES, pH 7.4, 140 mM NaCI, 2.5 mM CaCl2) and analyzed by FACScan for CD11c expression and Annexin V binding. Apoptotic cells are those that stained positive for Annexin V and negative for 7-AAD.

[9] = in non-human primates; cited from earlier work
RARE-TK-Luc reporter = RARE-TK-Luc reporter transient transfection in NB4 cells; format: cell-based; details: MAA 5 mM, 19 h
Experimental: Electroporation was performed using a Gene Pulser (BioRad, Hercules, Calif.) apparatus at 300 V and 960 μF capacity. […] Cells were harvested 19 h after transfection/treatment for luciferase and β-galactosidase activities.

ERK1/2 [10] = assay: Western blot of phospho-ERK1/2 in U-937 cells; format: cell-based; details: higher concentrations, 18 h, total ERK1/2 unaffected
Experimental: as §1

NB4 cells [11] = assay: Apoptosis by Annexin V binding (flow cytometry) in NB4 cells; format: cell-based; details: MAA 5 mM alone, NB4 cells, 3 days
Experimental: as §2, §4

[12] = in rats; cited from earlier work
ERK1/2 [13] = assay: Western blot of phospho-ERK1/2 in NB4 cells; format: cell-based; details: 24 h
Experimental: as §1

histones H3 and H4 = assay: Western blot of acetylated histones H3 and H4 in NB4 cells; format: cell-based
Experimental: as §1

[14] = industrial solvent of which MAA is a metabolite; cited from earlier work

Compound: CC(/C=C/C(=O)NO)=C\[C@@H](C)C(=O)c1ccc(N(C)C)cc1 [TSA, trichostatin A]
activity in vivo (anti-tumor) [1]: does not exhibit significant activity
metabolism ([2]; in vivo): rapidly metabolized

degradation of RARα and accumulation of ΔPML-RARα (PML-RARα): not observed
expression level of PML-RARα fusion protein (PML-RARα): no effect
Compound: COCC(=O)O [MAA, methoxyacetic acid]
H3 phosphorylation (Ser-10) (H3 [3]; higher concentrations): dramatically increased
H3 phosphorylation (Ser-10) (H3 [3]; lower concentrations): without effect
H3 acetylation and phosphorylation (H3 [4]): increase
differentiation as evidenced by expression of CD11c (HL-60 cells): induce differentiation
percentage of cells expressing CD11c induced by ATO (NB4 cells [5]; MAA 1 mM added to ATO 0.1 to 1 μM, NB4 cells, 3 days): significantly increases
percentage of cells expressing CD11b (NB4 cells [5]; MAA 1 mM alone, NB4 cells, 24 h, from 26%): 51%
expression of CD11c and CD11b (NB4 cells [5]; MAA 5 mM alone, NB4 cells, 3 days): can induce expression
NB4 cell differentiation (CD11c) (NB4 cells [5]; MAA 5 mM, 21 h): can induce NB4 cell differentiation
percentage of cells expressing CD11c (NB4 cells [5]; NB4 cells, 24 h, from 32%): 41%
percentage of NB4 cells expressing the myeloid differentiation markers CD11c and CD11b (NB4 cells [5]; NB4 cells, 3 days): comparable to ATRA
NB4 differentiation (NB4 cells [5]; NB4 cells, FIG. 10): potent inducers
percentage of cells expressing CD11c (Kasumi-1 cells): increased
level of phosphorylated C/EBPβ at Thr-235 (C/EBPβ; 17 h): dose-dependent increase
phosphorylation of C/EBPβ at Thr-235 (C/EBPβ; lower concentrations, 24 h): maximal phosphorylation
elimination half-life [6]: 77.1 h
expression of the differentiation marker CD11c (U-937 cells [7]): increasing expression
apoptosis (Annexin V) (U-937 cells [8]): inducing apoptosis
elimination half-life [9]: 20 h
transcription of RARE-containing reporter gene (RARE-TK-Luc) (RARE-TK-Luc reporter): does not activate
activity of ERK1/2 (phospho-ERK1/2) (ERK1/2 [10]): downregulate
half-life in vivo ([2]; Shih et al 2001): long
apoptosis (Annexin V) (NB4 cells [11]): does not induce significant amount of apoptosis
elimination half-life [12]: 13 to 18 h
levels of phosphorylated ERK (ERK1/2 [13]; higher concentrations (no differentiating effects), total ERK not decreased): dramatically decreased
constitutive levels of phosphorylated ERK (ERK1/2 [13]; lower concentrations): did not change
HDACI potency relative to BA (histones H3 and H4; as shown in the applicant's study (histone acetylation)): less potent HDACI than BA
H3 or H4 acetylation (histones H3 and H4; concentrations optimal for differentiation, NB4 cells, 24 h): no significant increase
H3 and H4 acetylation (histones H3 and H4; concentrations required for apoptosis, NB4 cells, 24 h): robust acetylation

Compound: COCCO [ethylene glycol monomethyl ether]
developmental toxicity [14]: developmental toxicant
